As usually defined, the melting point is the temperature, or range, at which the solid turns liquid. Take `CN1CCC(=C2c3ccccc3COc3ccc(CNC(=O)CCC(=O)O)cc32)CC1` [Compound 26, N-[11-(1-Methylpiperidin-4-ylidene)-6,11-dihydrodibenz[b,e]oxepin-2-ylmethyl]succinamic acid]: the melting point was 144 °C (dec.).
Then `CN1CCC(=C2c3cc(C(=O)O)ccc3COc3ccccc32)CC1` [Compound 28, 11-(1-Methylpiperidin-4-ylidene)-6,11-dihydrodibenz[b,e]oxepin-9-carboxylic acid], with 251 °C (dec.).
With `CN1CCC(=C2c3ccccc3COc3c(C(=O)O)cccc32)CC1` [Compound 37, 11-(1-Methylpiperidin-4-ylidene)-6,11-dihydrodibenz[b,e]oxepin-4-carboxylic acid] the figure was 233 °C (dec.); with `CN1CCC(=C2c3ccccc3COc3cc(C#N)ccc32)CC1` [Compound 13, 11-(1-Methylpiperidin-4-ylidene)-6,11-dihydrodibenz[b,e]oxepin-3-carbonitrile], 175 to 176 °C; with `CCOC(=O)c1cccc2c1OCc1ccccc1C2=C1CCN(C)CC1` [Compound 36, Ethyl 11-(1-methylpiperidin-4-ylidene)-6,11-dihydrodibenz[b,e]oxepin-4-carboxylate], 124 °C (dec.).
Molecule `CN1CCC(=C2c3ccccc3COc3c(C#N)cccc32)CC1` [Compound 34, 11-(1-Methylpiperidin-4-ylidene)-6,11-dihydrodibenz[b,e]oxepin-4-carbonitrile] registered a melting point of 175 to 178 °C.
The molecule `CC(=O)NCc1ccc2c(c1)C(=C1CCN(C)CC1)c1ccccc1CO2` [Compound 15, N-[11-(1-Methylpiperidin-4-ylidene)-6,11-dihydrodibenz[b,e]oxepin-2-ylmethyl]acetamide] yielded a melting point of 195 to 196 °C.
Molecule `CCOC(=O)CNC(=O)c1ccc2c(c1)C(=C1CCN(C)CC1)c1ccccc1CO2` [Compound 3, Ethyl {[11-(1-methylpiperidin-4-ylidene)-6,11-dihydrodibenz[b,e]oxepin-2-carbonyl]amino}acetate] registered a melting point of 175 to 178 °C.
`CN1CCC(=C2c3ccccc3COc3cc(C(=O)O)ccc32)CC1` [Compound 18, 11-(1-Methylpiperidin-4-ylidene)-6,11-dihydrodibenz[b,e]oxepin-3-carboxylic acid] returned a melting point of 208 to 212 °C.
With `COC(=O)C=Cc1ccc2c(c1)C(=C1CCN(C)CC1)c1ccccc1CO2.Cl` the figure was 244 °C (dec.).
Molecule `Cc1ccc2c(c1)C(=C1CCN(C)CC1)c1ccccc1CO2` [Compound 16, 1-Methyl-4-(2-methyl-6H-dibenz[b,e]oxepin-11-ylidene)-piperidine] had a melting point of 133 to 134 °C.
Molecule `CN1CCC(=C2c3ccccc3COc3ccc(CO)cc32)CC1` [Compound 21, [11-(1-Methylpiperidin-4-ylidene)-6,11-dihydrodibenz[b,e]oxepin-2-yl]methanol] gave a melting point of 140 to 143 °C.
Turning to `CN1CCC(=C2c3ccccc3COc3ccc(-c4nn[nH]n4)cc32)CC1` [Compound 8, 1-Methyl-4-[2-(2H-tetrazol-5-yl)-6H-dibenz[b,e]oxepin-11-ylidene]piperidine], the melting point is 225 °C (dec.).
Regarding `CN1CCC(=C2c3ccccc3COc3ccc(CNC(=O)OC(C)(C)C)cc32)CC1` [Compound 9, tert-Butyl [11-(1-methylpiperidin-4-ylidene)-6,11-dihydrodibenz[b,e]oxepin-2-ylmethyl]carbamate], the melting point fell in the range of 145 to 148 °C.
As to `CN1CCC(=C2c3ccc(C(=O)O)cc3COc3ccccc32)CC1` [Compound 33, 11-(1-Methylpiperidin-4-ylidene)-6,11-dihydrodibenz[b,e]oxepin-8-carboxylic acid], the melting point is 210 °C (dec.).
Consider `CN1CCC(=C2c3ccccc3COc3c(C=CC(=O)O)cccc32)CC1` [Compound 32, 3-[11-(1-Methylpiperidin-4-ylidene)-6,11-dihydrodibenz[b,e]oxepin-4-yl]acrylic acid], for which the melting point is 188 °C (dec.).
Then `CN1CCC(=C2c3ccccc3COc3ccc(Br)cc32)CC1` [Compound 4, 4-(2-Bromo-6H-dibenz[b,e]oxepin-11-ylidene)-1-methylpiperidine], with 131 to 132 °C.
Take `CN1CCC(=C2c3ccccc3COc3ccc(C=CCO)cc32)CC1.Cl`: the melting point is 118 °C (dec.).
Then `CN1CCC(=C2c3ccccc3COc3ccc(CN)cc32)CC1.Cl.Cl`, with 140 °C (dec.); and `CN1CCC(=C2c3ccccc3COc3cc(Br)ccc32)CC1` [Compound 12, 4-(3-Bromo-6H-dibenz[b,e]oxepin-11-ylidene)-1-methylpiperidine], with 127 to 128 °C.
The molecule `CCOC(=O)C=Cc1cccc2c1OCc1ccccc1C2=C1CCN(C)CC1` [Compound 31, Ethyl 3-[11-(1-methylpiperidin-4-ylidene)-6,11-dihydrodibenz[b,e]oxepin-4-yl]acrylate] returned a melting point of 126 to 127 °C.
Turning to `CN1CCC(=C2c3ccccc3COc3ccc(C(=O)NCCO)cc32)CC1` [Compound 19, N-(2-Hydroxyethyl)-11-(1-methylpiperidin-4-ylidene)-6,11-dihydrodibenz[b,e]oxepin-2-carboxamide], the melting point is 234 to 236 °C.
For the molecule `CCOC(=O)c1ccc2c(c1)C(=C1CCN(C)CC1)c1ccccc1OC2` [Compound 29, Ethyl 11-(1-methylpiperidin-4-ylidene)-6,11-dihydrodibenz[b,e]oxepin-9-carboxylate], the melting point is 124 °C (dec.).
With `CCOC(=O)NCc1ccc2c(c1)C(=C1CCN(C)CC1)c1ccccc1CO2` [Compound 14, Ethyl [11-(1-methylpiperidin-4-ylidene)-6,11-dihydrodibenz[b,e]oxepin-2-ylmethyl]carbamate] the figure was 135 to 136 °C.
The molecule `CN1CCC(=C2c3ccccc3COc3ccc(CNC(=O)c4ccccc4)cc32)CC1` [Compound 20, N-[11-(1-Methylpiperidin-4-ylidene)-6,11-dihydrodibenz[b,e]oxepin-2-ylmethyl]benzamide] showed a melting point of 218 to 219 °C.
For `CCOC(=O)CCC(=O)NCc1ccc2c(c1)C(=C1CCN(C)CC1)c1ccccc1CO2` [Compound 27, Ethyl N-[11-(1-methylpiperidin-4-ylidene)-6,11-dihydrodibenz[b,e]oxepin-2-ylmethyl]succinamate], the melting point is 150 to 152 °C.
`CN1CCC(=C2c3ccccc3COc3ccc(C=O)cc32)CC1` [Compound 23, 11-(1-Methylpiperidin-4-ylidene)-6,11-dihydrodibenz[b,e]oxepin-2-carboaldehyde] yielded a melting point of 157 to 160 °C.
Regarding `CCOC(=O)c1ccc2c(c1)C(=C1CCN(C)CC1)c1ccccc1CO2.Cl`, the melting point was 270 °C (dec.).
Molecule `CCOC(=O)C=Cc1ccc2c(c1)OCc1ccccc1C2=C1CCN(C)CC1` [Compound 35, Ethyl 3-[11-(1-methylpiperidin-4-ylidene)-6,11-dihydrodibenz[b,e]oxepin-3-yl]acrylate] displayed a melting point of 173 to 175 °C.

These data come from patent publication US8222419B2, “Oxepin derivative” (Nippon Zoki Pharmaceutical Co., Ltd., priority 2006, dated 2012).
